The results in this text go back to US20230346931A1, “ALTERNATIVE SURFACTANTS AS STABILIZERS FOR THERAPEUTIC PROTEIN FORMULATIONS” (Hoffmann-La Roche Inc., priority 2020, published 2023).

Common to all, as to type: physicochemical
Data set [1] relates to model mAb. Nature of the data set: Thermal conformational protein stability in presence of surfactants (nanoDSF). To be noted: for effect on mAbs' conformational stability: elevated surfactant concentrations; for change of Tm1: surfactant 10 mg/mL; for change in thermal conformational stability properties: already at lower concentrations of 0.1 & mg/mL. From the text: Conformational protein stability was investigated with the Prometheus NT.Plex (NanoTemper Technologies GmbH, München, Germany). The device allows the label-free fluorimetric analysis of the change in intrinsic protein fluorescence from aromatic tryptophan and tyrosine residues by using small quantities of solution. Thermal induced protein unfolding was monitored by detecting the emission shift at 330 nm and 350 nm at a laser power of 5%. The nanoDSF grade standard capillary chips (NanoTemper Technologies, München, Germany) were filled with 10 μL of freshly prepared (t0) formulation containing 25 mg/mL mAb compounded with either 0.01, 0.1, 1 or 10 mg/mL of the specific surfactant. Sodium dodecyl sulfate (SDS) was taken as positive control since the charge as been reported to lead to destabilization of proteins presumably by chare-charge interactions. Samples were heated from 25 to 95° C. with a constant heating ramp of 0.5° C. per minute. The PR.StabilityAnalysis software (NanoTemper Technologies, München, Germany) automatically calculated the onset (Ton) and first transition point (Tm1) temperature of the melting curve. Data reported are the mean value of three individual measurements.
Stability indicating parameters being the onset temperature (Ton) of unfolding and the first melting transition (Tm1) were measured for the model mAb in presence of surfactants at concentrations ranging from 0.01 mg/mL to 10 mg/mL (see FIG. 4).
Background: DSF heats the sample and reads unfolding from a dye or from intrinsic fluorescence.

The test system of data set [2] is mAb 1. Nature of the data set: Protein stability in presence of surfactants after mechanical stresses (shaking, freeze-thaw) and thermal stress, mAb 1. To be noted: for particle formation upon shaking: 200 rpm, 7 days, 5° C. and 25° C.; for SVP ≥10 μm per container after shaking: criteria of maximum 6,000 particles≥10 μm per container. On the procedure: (§1) Surfactant performance screens were carried out with 0.1 and 1 mg/mL of the surfactant in the formulation of the model mAb described within the Materials section. After compounding the liquid samples were sterile filtered through 0.22 μm Millex Sterivex™ GV (Millipore, Bedford, USA) filter units, filled into 6 mL type 1 glass vials and closed with Ø 20 mm teflon® coated serum stoppers (DAIKYO Seiko Ltd., Tokyo, Japan). The stoppered vials were crimped using an aluminum cap (Infochroma AG, Goldau, Switzerland). The corresponding placebo formulations were equally prepared, formulated and used as respective controls.
To evaluate the effects of the surfactants on the mAb's stability the formulations were exposed to various interfacial stress conditions like agitation and various freeze-thaw cycles. Shaking stress was carried by placing the vials horizontally for seven days at 5° C. and 25° C. protected from light within a shaker (HS 260 Control Model; IKA Werke GmbH & Co. KG; Staufen, Germany) at constant 200 rounds per minute (rpm). Freeze-thaw (F/T) stress was performed by exposing the vials to five consecutive cycles of freezing at −20° C. and thawing at 5° C.
Thermal stability data was generated by storing the liquid protein formulations for up to 24 months (mo) at 5° C., for 6 months at 25° C./60% relative humidity (rH) and 12 weeks at 40° C./75% rH. Samples were analyzed at initial time point (t0) and after 1 mo, 3 mo, 6 mo, 12 mo, 18 mo and 24 months of storage using the subsequently described analytical methods
Enhanced visual inspection was performed as previously described using a Seidenader V 90-T machine (Seidenader Maschinenbau GmbH, Markt Schwaben, Germany)[58]. The number of particles were categorized into four classes: class (I) is equivalent to 0 particles, class (II) is equivalent to 1-5 particles, class (III) is equivalent to 6-10 particles and class (IV) is equivalent to >10 particles.
Turbidity was determined as previously described in literature and according to Ph. Eur. 2.2.1 using a 2100AN turbidimeter (Hach Lange GmbH, Dusseldorf, Germany) calibrated with a StablCal® calibration kit (Hach Lange GmbH). Results were given as Nephelometic Turbidity Units (NTU).
The color of the solutions was assessed by means of a LICO 690 Colorimeter (Hach Lange GmbH). Classification was performed according to the color scale described in Ph. Eur. 2.2.2.. Data presented herein show the degree of color change according to color scale values of Ph.Eur. 2.2.2: class (I) is equivalent to color scale values of 9, 8, 7, or colorless; class (II) is equivalent to color scale values of 6 or 5; class (III) is equivalent to color scale values of 4 or 3; and class (IV) is equivalent to color scale values of 2 or 1.
Sub-visible particle (SVP) count was measured by means of light obscuration using a HIAC 9703+ liquid particle counting system (Skan AG, Allschwil, Switzerland) and PharmSpec 3 (Hach Lange GmbH) software. The applied measurement technique was adapted from the method described in Ph.Eur. 2.9.19 [61] and USP <787>[62]. After rinsing the system with sample solution, four runs with a sample volume of 0.2 mL were performed. The final cumulative particle count was obtained by calculating the mean ±SD (standard deviation) from the last three measurements. SVP bigger than or equal to 2, 5, 10 and 25 μm were measured and presented as cumulative counts per mL of solution.
Detection of soluble mAb aggregates, in the following referred to as high molecular weight species (HMWS), the monomer and the low molecular weight species (LMWs) were analyzed by SE-HPLC. The utilized system comprised an Alliance 2695 HPLC instrument equipped with a 2487 UV detector (both from Waters Corporation, Milford, MA). The autosampler temperature was set to 5° C. and the system was loaded with total 100 μg of the mAb. […]

The subject of data set [3] is mAb 1. Briefly: Long-term protein stability (storage at 5° C. and 25° C.), mAb 1. To be noted: higher concentrations. On the procedure: as §1
Thermal stability data was generated by storing the liquid protein formulations for up to 24 months (mo) at 5° C., for 6 months at 25° C./60% relative humidity (rH) and 12 weeks at 40° C./75% rH. Samples were analyzed at initial time point (t0) and after 1 mo, 3 mo, 6 mo, 12 mo, 18 mo and 24 months of storage using the subsequently described analytical methods […]
Turbidity was determined as previously described in literature and according to Ph. […]
The color of the solutions was assessed by means of a LICO 690 Colorimeter (Hach Lange GmbH). […]
Sub-visible particle (SVP) count was measured by means of light obscuration using a HIAC 9703+ liquid particle counting system (Skan AG, Allschwil, Switzerland) and PharmSpec 3 (Hach Lange GmbH) software. […]

Data set [4] is described as follows: Surface tension measurement (dynamic surface tension, DST). Conditions: mAb formulation at t0. On the procedure:
Surface tension measurements were performed by means of liquid handling stations according to a method described by Amrhein et al.[63]. Briefly, the measurement depends on the correlation between drop mass and the surface tension of the sample. For this study a fully automated liquid handling station Freedom 384 EVO 200 (Tecan, Crailsheim, Germany) was equipped with an analytical balance (Mettler Toledo, Columbus, USA). The system contains stainless fixed tips which aspirate the sample with 100 μL·s^−1 from a sealed 1 mL round bottom LoBind® Deepwell Plate (Eppendorf, Hamburg, Germany). The sample was dispensed with 3 μL·s^−1 to a second round bottom Deepwell Plate 96/500 μL (Eppendorf, Hamburg, Germany) mounted on an analytical balance. The weight was recorded continuously using fully automated routines written in Matlab R2017b (MathWorks, Natick, MA, USA). The surface tension of water (72.6 mN/m) was used as a reference for calculations. The mean of three individual measurements of the samples (at t0) is reported as surface tension.

In the case of `C[C@H](CCC(=O)N(CCCNC(=O)[C@H](O)[C@@H](O)[C@H](O)[C@H](O)CO)CCCNC(=O)[C@H](O)[C@@H](O)[C@H](O)[C@H](O)CO)[C@H]1CC[C@H]2[C@@H]3CC[C@@H]4C[C@H](O)CC[C@]4(C)[C@H]3C[C@H](O)[C@]12C` [DBC, Deoxy-BigCHAP], in data set [1], the “effect on mAbs' conformational stability” value is recorded as “destabilizing effect” and the “change of Tm1” value was “slight decrease”. Moreover, the “change of Ton” value in data set [1] (surfactant 1 and 10 mg/mL) was “slight decrease in Ton”. Also, the visible particles initially entry in data set [2] (1 mg/mL surfactant) is reported as “many particles initially”. Further, in data set [2], the “particle formation upon shaking” value is “particle formation particularly after agitation” and the “SVP ≥10 μm per container after shaking” value is given as “exceeded USP <787> criteria”. Moreover, in data set [3], the solubility in formulation entry is reported as “solubility issues”.

For `CCCCCCCCCC(=O)N(CCO)C[C@H](O)[C@@H](O)[C@H](O)[C@H](O)CO` [HEGA-10, decanoyl-N-hydroxyethylglucamide], in data set [1], the “effect on mAbs' conformational stability” value is “destabilizing effect” and the “change of Tm1” value was “comparable destabilizing effect”. Also, the “change of Ton” value in data set [1] (surfactant 1 and 10 mg/mL) is recorded as “comparable destabilizing effect”.

With `CCCCCCCCC(=O)N(C)C[C@H](O)[C@@H](O)[C@H](O)[C@H](O)CO` [MEGA-9, nonanoyl-N-methylglucamide], in data set [1], the “effect on mAbs' conformational stability” value was “destabilizing effect” and the “change of Tm1” value is “comparable destabilizing effect”. Besides, the “change of Ton” value in data set [1] (surfactant 1 and 10 mg/mL) is listed as “comparable destabilizing effect”.

Regarding `C[C@H](CCC(=O)NCC(=O)[O-])[C@H]1CC[C@H]2[C@@H]3[C@H](O)C[C@@H]4C[C@H](O)CC[C@]4(C)[C@H]3C[C@H](O)[C@]12C.O.[Na+]` [NaGC, sodium glycocholate hydrate], the “change in thermal conformational stability properties” value in data set [1] is listed as “strong decrease in thermal conformational stability properties”.

Regarding `CCCCCCCCCCCCOS(=O)(=O)[O-].[Na+]` [SDS, Sodium dodecyl sulfate, reference compound], the “effect on Ton and Tm1 compared to reference formulation without surfactant” value in data set [1] (surfactant 0.01 to 10 mg/mL) is “concentration dependent destabilizing effect”.

For Chobimalt, in data set [1], the “effect on mAbs' conformational stability” value is “no impact”. The “change of Ton” value in data set [1] (surfactant 1 mg/mL or higher) was “slight increase of Ton”. In data set [2], the “color after shaking stress” value was “strong change in color”, the “particle formation upon shaking” value was “strongest particle formation upon shaking” and the “SVP ≥10 μm per container after shaking” value was “exceeded USP <787> criteria”. For the same compound, in data set [2] (5 freeze-thaw cycles), the “stabilizing effect upon F/T studies” value is given as “missing stabilizing effect at the interface”. The dynamic surface tension entry in data set [4] is given as “around 73 mN/m”.

Consider sodium deoxy cholate [NaDC], for which the “change in thermal conformational stability properties” value in data set [1] is on record as “strong decrease in thermal conformational stability properties”.
